Measured values: patent publication US20230054407A1, “OPTICAL BIOPSY STAIN PANELS AND METHODS OF USE” (ARIZONA BOARD OF REGENTS ON BEHALF OF THE UNIVERSITY OF …, priority 2020, published 2023)

How the values were obtained:
[1] = In vitro fluorescence emission spectra and compatibility of nucleic acid and protein/cytoplasm dyes; type: physicochemical; conditions: for source of the resultant fluorescence emission signal of the mixture: Mitoxantrone mixed with Phloxine B at 100:1 molar ratio
Protocol: Additional incompatibility results from overlapping of the component peak emissions.
Daunorubicin (1 μM), Fluorescein (1 nM) and the combination of the two were excited at 375 nm, with resultant fluorescence emission.
With 405 nm excitation, Proflavine at 0.25 μM, Rose Bengal at 10 μM, and the combination result in roughly the same order of magnitude peaks resulting from their respective fluorescence.
FIGS. 8A-8F show emission spectra of various drug dye candidates. FIGS. 8A-8D show Mitoxantrone as a Hematoxylin-alternative candidate at 10 μM, with Phloxine B at 0.1 μM as an Eosin-alternative candidate drug-dye, and a combination of the two excited at different wavelengths: (FIG. 8A) 375 nm, (FIG. 8B) 405 nm, (FIG. 80) 455 nm, and (FIG. 8D) 488 nm. […] Additionally, there was overlap of emission spectra (FIG. 9) and the combination of certain DNA and protein dyes decreased the emission intensity relative to the same concentration of the component dye alone (FIG. 9 and FIG. 10).
The stain panels listed below use a combination of nucleus dyes and protein/cytoplasm dyes that have been optimized for their compatibility.

bovine lung tissue = experiment: Topical drug-dye staining of ex vivo bovine lung tissue imaged with confocal microscopy; conditions: for localization of drug-dye: ex vivo bovine lung tissue, qualitatively at the concentrations of FIGS. 2A-2D; for staining pattern: single dye applied topically to ex vivo bovine lung tissue, confocal microscopy
Description: Image field is 635.5 μm tall×wide. Inset is the structure of Proflavine.
Image field is 635.5 μm tall×wide. […]
Imaging was with confocal microscopy, with a bovine lung sample thickness of 10 μm, and an image field of 635.5 μm^2.
Imaging was with confocal microscopy settings at 488 nm excitation after topical application to the bovine lung specimen. Image field is 635.5 μm^2 at 10 μm thickness.
The dyes were pipetted in situ upon bovine tissue ex vivo and examined under confocal microscopy with a 488 nm laser with 10 μm optical thickness and imaged fields being 635.5 μm^2.
Referring to FIG. 1, 50 μl at 20 μM of Proflavine was topically applied directly to ex vivo bovine lung tissue in situ and imaged immediately with confocal microscopy. […] Likewise, Fluorescein, Phenol Red, Phloxine B, and Rose Bengal were each added to ex vivo bovine lung tissue and imaged under confocal microscopy (see FIGS. 2A-2I). […] This combination was then added topically to bovine lung tissue and imaged using confocal microscopy (FIG. 3). […]

[2] = tested on: human breast cancer metastasized to the lung; experiment: Staining of human breast cancer metastasized to the lung with Rose Bengal and Proflavine; conditions: Rose Bengal and Proflavine combined, concentrations similar to FIG. 6A

| Structure (SMILES) | Approximate peak fluorescence [1] [nm] | staining pattern (bovine lung tissue) | also measured |
| --- | --- | --- | --- |
| Nc1c(/N=N/c2ccc(-c3ccc(/N=N/c4cc(S(=O)(=O)O)c5ccccc5c4N)cc3)cc2)cc(S(=O)(=O)O)c2ccccc12 [Congo Red] | ~425 |  |  |
| COc1cccc2c1C(=O)c1c(O)c3c(c(O)c1C2=O)C[C@@](O)(C(C)=O)C[C@@H]3O[C@H]1C[C@H](N)[C@H](O)[C@H](C)O1 [Daunorubicin] |  |  | change of fluorescence emission peak with increasing concentrations of Phloxine B ([1]; 488 nm excitation, peak around 590 nm): progressive decrease of fluorescence emission |
| CN(C)c1ccc2nc3ccc(=[N+](C)C)cc-3sc2c1 [Methylene Blue] | ~695 |  |  |
| O=C1c2c(O)ccc(O)c2C(=O)c2c(NCCNCCO)ccc(NCCNCCO)c21 [Mitoxantrone] | ~685 |  | concentration dependence of fluorescence ([1]; 455 nm excitation): concentration-dependent fluorescence; source of the resultant fluorescence emission signal of the mixture ([1]; 375 nm excitation): primarily Mitoxantrone |
| O=C([O-])c1c(Cl)c(Cl)c(Cl)c(Cl)c1-c1c2cc(Br)c(=O)c(Br)c-2oc2c(Br)c([O-])c(Br)cc12.[Na+].[Na+] [Phloxine B] | ~550 | variable staining of the proteinaceous connective tissue and cellular cytoplasm, granules or vesicles | source of the resultant fluorescence emission signal of the mixture ([1]; 488 nm excitation): nearly all the fluorescence emission signal from Phloxine B; localization of drug-dye (bovine lung tissue): appeared to localize to cell cytoplasm in addition to the connective tissue fibers |
| Nc1ccc2cc3ccc(N)cc3nc2c1 [Proflavine] | ~508 | staining like those typical of a fluorescent DNA dye | structure outlined by the stain [2]: nucleus |
| O=C([O-])c1c(Cl)c(Cl)c(Cl)c(Cl)c1-c1c2cc(I)c(=O)c(I)c-2oc2c(I)c([O-])c(I)cc12.[Na+].[Na+] [Rose Bengal] | ~565 | variable staining of the proteinaceous connective tissue and cellular cytoplasm, granules or vesicles | localization of drug-dye (bovine lung tissue): appeared to localize to cell cytoplasm in addition to the connective tissue fibers; structure outlined by the stain [2]: proteins |
